From patent US4578380A, “5H-[1]benzopyrano[2,3-d]pyrimidine derivatives useful for controlling lesions of the gastric and duodenal mucous membranes” (Warner-Lambert Company, priority 1983, dated 1986)

Experiments:
[1] = system: Indomethacin-Induced Ulcer; experiment: Indomethacin-Induced Ulcer; format: in vivo, male rats (Sprague Dawley SIV 50); details: rat
Method: 1. Indomethacin-Induced Ulcer Test animals were male rats (Sprague Dawley SIV 50) weighing between 150-200 g. The animals were kept fasting 24 hours before starting the test, drinking water being available ad libitum. The animals were alloted to three groups, each group comprising ten rats. […] Five hours following administration the animals were killed with CO2 gas, the stomachs removed and opened along the greater curvature. After measuring the pH value the stomach was tested for ulcerations under a stereo magnifying glass. The method described by Chaumontet, et al. Arzneimittelforschung/Drug Research 28 (II) pp 2119-2121 (1978) was used to rate the ulcerations and calculate the ulcer index (UI). The effect of the substances was rendered as the percentage inhibition of the ulcers caused by indomethacin in comparison to the untreated reference group.

Cold-Stress Ulcer = experiment: Cold-Stress Ulcer; format: in vivo, male rats (Sprague Dawley SIV 50); details: rat
Method: 2. Cold-Stress Ulcer Test animals were male rats (Sprague Dawley SIV 50) weighing between 110 and 150 g. The animals were kept fasting 24 hours before starting the test, drinking water being available ad libitum. […] Immediately after administration of the substances the animals were anesthetized with […] on their backs, fixed with adhesive tapes to wooden boards. Thus rendered immobile the animals were put into a permanently lit room, ambient temperature +15° C., relative humidity 50-60%, for 14 hours. After this time of exposure the rats were killed with CO2, the stomachs removed and opened along the greater curvature. After measuring the pH value the gastric mucosa was tested for ulcerations under a stereo magnifying glass. The ulcerations were rated and the ulcer index (UI) calculated as described for test 1, the effect of the substances being expressed as the percentage inhibition of the ulcer formation in comparison to the untreated control group.

Gastric Acid Secretion = experiment: Test for the Inhibition of the Gastric Acid Secretion According to Ghosh and Schild; format: in vivo, male rats (Sprague Dawley SIV 50); details: rat
Method: 3. Test for the Inhibition of the Gastric Acid Secretion According to Ghosh and Schild (Brit. J. Pharmacol. 13 pp 54-61 (1958) The test animals were male rats (Sprague Dawley SIV 50) weighing between 300-450 g. The animals were kept fasting 24 hours before starting the test, water being available ad libitum. The animals were anesthetized with 1.25 g/kg urethane IP. Trachea, vena jugularis, arteria carotis, and oesophagus were exposed, and a fistula placed at the pylorus. Via an oesophagus tube the stomach was perfused with 1/4000 N NaOH at a flow rate of 3 ml/min. By means of the NaOH perfusion the pH of the gastric juice was adjusted to about pH 7 and continuously measured with a measuring electrode. Via the vena jugularis the acid-stimulating substance (carbachol 0.25 μg/kg/min or pentagastrin 1 μg/kg/min) was infused.

gastric mucous membrane = details: cited from earlier work
[2] = 125 mg/kg (dose column: i.g.; method: duodenal catheter)
[3] = 250 mg/kg (dose column: i.g.; method: duodenal catheter)

Compound	Protective Action in %, "Indomethacin" ulcer model ([1]; 125 mg/kg i.g.) [%]	Protective Action in %, "Indomethacin" ulcer model ([1]; 250 mg/kg i.g.) [%]	Protective Action in %, "Stress" ulcer model (Cold-Stress Ulcer; 125 mg/kg i.g.) [%]	Antisecretion (Gosh + Schild Model) (Gastric Acid Secretion; [2])	Antisecretion (Gosh + Schild Model) (Gastric Acid Secretion; [3])	further results
CN(C)CCCSc1nc(-c2ccccc2)nc2c1Cc1ccccc1O2 [Compound (1), 4-(3-dimethylaminopropylthio)-2-phenyl-5H-[1]benzopyrano[2,3-d]pyrimidine]	88	95	70	No effect	No effect	Protective Action in %, "Stress" ulcer model (Cold-Stress Ulcer; 250 mg/kg i.g.): 86%
CN/C(=N/CCSCc1nc[nH]c1C)NC#N [Cimetidine, reference compound]						Protective Action in %, "Indomethacin" ulcer model ([1]; 100 mg/kg i.g.): 80%; Protective Action in %, "Indomethacin" ulcer model ([1]; 200 mg/kg i.g.): 89%; Protective Action in %, "Indomethacin" ulcer model ([1]; 3 × 100 mg/kg i.g.): 39%; Protective Action in %, "Stress" ulcer model (Cold-Stress Ulcer; 100 mg/kg i.g.): 53%; Protective Action in %, "Stress" ulcer model (Cold-Stress Ulcer; 200 mg/kg i.g.): 54%; Antisecretion (Gosh + Schild Model): pH reached (Gastric Acid Secretion; 5 mg/kg i.v., after 35 min): 7.9 pH; Antisecretion (Gosh + Schild Model): time after which pH 7.9 was reached (Gastric Acid Secretion; 5 mg/kg i.v.): 35 min; undesired side effects (gastric mucous membrane; general statement in therapy): undesired CNS and other side effects; changes of the gastric mucous membrane / relapse ulcers (gastric mucous membrane; long-term treatment, following discontinuation): changes of the gastric mucous membrane found under long-term treatment
Cc1ccc(-c2nc3c(c(SCCCN4CCOCC4)n2)Cc2ccccc2O3)cc1 [Compound (26), 2-(4-methylphenyl)-4-(3-morpholinopropylthio)-5H-[1]benzopyrano[2,3-d]pyrimidine]		50			No effect	
CNCCCSc1nc(-c2ccc(C)cc2)nc2c1Cc1ccccc1O2 [Compound (27a), 4-(3-methylaminopropylthio)-2-(4-methylphenyl)-5H-[1]benzopyrano[2,3-d]pyrimidine]		94			No effect	
Cc1ccc(-c2nc3c(c(SCCCN(C)C)n2)Cc2ccccc2O3)cc1 [Compound (16)]	83	99.5	72	No effect	No effect	
